Measurements reported in PubChem BioAssay AID212 (DTP/NCI, 2004).
Several values for one entry are separate records, joined by “and”; a condition that tells them apart may be missing. Equal values may be shown once. Inconclusive results are not listed.

System: BDF1 mice, colon carcinoma 38 sc, T/C %
Assay: NCI In Vivo Anticancer Drug Screen. Data for tumor model Colon Carcinoma 38 (subcutaneous) in B6D2F1 (BDF1) mice
Procedure, shortened: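 Ratio of survival or tumor size, compound-treated animals relative to vehicle controls, in tumor-bearing mice.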

[1] = endpoint: median tumor weight (est.), dose: 12.5 mg/kg/injection, schedule: Q07DX002 (ip), vehicle: saline with Tween-80, higher = larger tumour
[2] = endpoint: median tumor weight (est.), dose: 100.0 mg/kg/injection, schedule: Q07DX002 (ip), vehicle: saline with Tween-80, higher = larger tumour
[3] = endpoint: median tumor weight (est.), dose: 100.0 mg/kg/injection, schedule: Q07DX002 (ip), vehicle: Klucel (hydroxypropylcellulose) (HPC), higher = larger tumour
[4] = endpoint: median tumor weight (est.), dose: 200.0 mg/kg/injection, schedule: Q07DX002 (ip), vehicle: Klucel (hydroxypropylcellulose) (HPC), higher = larger tumour
[5] = endpoint: median tumor weight (est.), dose: 400.0 mg/kg/injection, schedule: Q07DX002 (ip), vehicle: Klucel (hydroxypropylcellulose) (HPC), higher = larger tumour
[6] = endpoint: median tumor weight (est.), dose: 50.0 mg/kg/injection, schedule: Q07DX002 (ip), vehicle: saline with Tween-80, higher = larger tumour
[7] = endpoint: median tumor weight (est.), dose: 200.0 mg/kg/injection, schedule: Q07DX002 (ip), vehicle: saline with Tween-80, higher = larger tumour
[8] = endpoint: median tumor weight (est.), dose: 400.0 mg/kg/injection, schedule: Q07DX002 (ip), vehicle: saline with Tween-80, higher = larger tumour

## Nc1nc(N)c2c(Cl)c(CNc3ccc(Cl)c(Cl)c3)ccc2n1
[1]
  T/C: 73 % of control and 82 % of control and 88 % of control
[2]
  T/C: 5 % of control and 19 % of control

## Cc1ccc(S(=O)(=O)OCOS(=O)(=O)c2ccc(C)cc2)cc1
[3]
  T/C: 61 % of control
[4]
  T/C: 104 % of control
[5]
  T/C: 80 % of control and 93 % of control
endpoint: median tumor weight (est.), dose: 1600.0 mg/kg/injection, schedule: Q07DX002 (ip), vehicle: Klucel (hydroxypropylcellulose) (HPC), higher = larger tumour
  T/C: 19 % of control and 27 % of control

## COC1=C(OC)C(=O)C(C/C=C(\C)CC/C=C(\C)CC/C=C(\C)CC/C=C(\C)CC/C=C(\C)CC/C=C(\C)CC/C=C(\C)CC/C=C(\C)CC/C=C(\C)CCC=C(C)C)=C(C)C1=O
[1]
  T/C: 202 % of control
[6]
  T/C: 86 % of control
[2]
  T/C: 83 % of control
[7]
  T/C: 121 % of control
[8]
  T/C: 110 % of control

## C/C=C/c1cc2n(c1)C(=O)c1cc(OC3OC(C)C(NC)C(C)(O)C3O)c(C)c(O)c1NC2O (stereo unspecified)
endpoint: median tumor weight (est.), dose: 32.0 micrograms/kg/injection, schedule: Q07DX002 (ip), vehicle: saline, higher = larger tumour
  T/C: 42 % of control

## CCCCCC[C@H]([C@H](C)O)n1cnc2c(N)ncnc21
endpoint: median survival time, dose: 22.0 mg/kg/injection, schedule: Q02DX006 (iv), vehicle: saline, higher = longer survival
  T/C: 113 % of control
endpoint: median survival time, dose: 36.0 mg/kg/injection, schedule: Q02DX006 (iv), vehicle: saline, higher = longer survival
  T/C: 111 % of control
endpoint: median survival time, dose: 58.0 mg/kg/injection, schedule: Q02DX006 (iv), vehicle: saline, higher = longer survival
  T/C: 92 % of control
endpoint: median survival time, dose: 93.0 mg/kg/injection, schedule: Q02DX006 (iv), vehicle: saline, higher = longer survival
  T/C: 115 % of control
endpoint: median tumor weight (est.), dose: 6.25 mg/kg/injection, schedule: Q07DX002 (ip), vehicle: Klucel (hydroxypropylcellulose) (HPC), higher = larger tumour
  T/C: 91 % of control
endpoint: median tumor weight (est.), dose: 12.5 mg/kg/injection, schedule: Q07DX002 (ip), vehicle: Klucel (hydroxypropylcellulose) (HPC), higher = larger tumour
  T/C: 194 % of control
[3]
  T/C: 117 % of control and 103 % of control

## CSc1ncnc2c1ncn2C1OC(CO)C(O)C1O (stereo unspecified)
endpoint: median tumor weight (est.), dose: 6.25 mg/kg/injection, schedule: Q07DX002 (ip), vehicle: saline + alcohol, higher = larger tumour
  T/C: 91 % of control
endpoint: median tumor weight (est.), dose: 12.5 mg/kg/injection, schedule: Q07DX002 (ip), vehicle: saline + alcohol, higher = larger tumour
  T/C: 83 % of control
endpoint: median tumor weight (est.), dose: 25.0 mg/kg/injection, schedule: Q07DX002 (ip), vehicle: saline + alcohol, higher = larger tumour
  T/C: 150 % of control
endpoint: median tumor weight (est.), dose: 100.0 mg/kg/injection, schedule: Q07DX002 (ip), vehicle: saline + alcohol, higher = larger tumour
  T/C: 25 % of control

## CCC1OC(OC)C=CC1=O (stereo unspecified)
endpoint: median tumor weight (est.), dose: 25.0 mg/kg/injection, schedule: Q07DX002 (ip), vehicle: saline with Tween-80, higher = larger tumour
  T/C: 92 % of control
[6]
  T/C: 73 % of control
[2]
  T/C: 73 % of control

## [I][Hg][CH2]C1COC([CH2][Hg][I])CO1 (stereo unspecified)
endpoint: median tumor weight (est.), dose: 6.25 mg/kg/injection, schedule: Q07DX002 (ip), vehicle: suspension in saline, higher = larger tumour
  T/C: 67 % of control
endpoint: median tumor weight (est.), dose: 50.0 mg/kg/injection, schedule: Q07DX002 (ip), vehicle: suspension in saline, higher = larger tumour
  T/C: 120 % of control

## COC(=O)C(N)CCCCNc1ccc2c(cc1=O)C(NC(C)=O)CCc1cc(OC)c(OC)c(OC)c1-2 (stereo unspecified)
endpoint: median tumor weight (est.), dose: 287.0 mg/kg/injection, schedule: Q07DX002 (ip), vehicle: saline, higher = larger tumour
  T/C: 78 % of control

## Cc1ccc(S(=O)(=O)N/N=C/C(Br)=C(/Br)C(=O)O)cc1
endpoint: median tumor weight (est.), dose: 25.0 mg/kg/injection, schedule: Q07DX002 (ip), vehicle: Klucel (hydroxypropylcellulose) (HPC), higher = larger tumour
  T/C: 94 % of control
[3]
  T/C: 124 % of control and 100 % of control
[4]
  T/C: 88 % of control
[5]
  T/C: 72 % of control

## CC(=O)Oc1[nH]c(=O)c2cccc3c2c1CCC3
[6]
  T/C: 161 % of control
[7]
  T/C: 118 % of control
[8]
  T/C: 122 % of control
endpoint: median tumor weight (est.), dose: 1600.0 mg/kg/injection, schedule: Q07DX002 (ip), vehicle: saline with Tween-80, higher = larger tumour
  T/C: 118 % of control

## CC(=O)OC(C)C1C2=C(C(=O)CC1(C)O)C(=O)c1c(ccc(-c3ccc4c(c3O)C(=O)C3=C(C4=O)C(C(C)OC(C)=O)C(C)(O)CC3=O)c1O)C2=O (stereo unspecified)
endpoint: median tumor weight (est.), dose: 1.85 mg/kg/injection, schedule: Q07DX002 (ip), vehicle: saline with Tween-80, higher = larger tumour
  T/C: 155 % of control
endpoint: median tumor weight (est.), dose: 3.75 mg/kg/injection, schedule: Q07DX002 (ip), vehicle: saline with Tween-80, higher = larger tumour
  T/C: 109 % of control
endpoint: median tumor weight (est.), dose: 7.5 mg/kg/injection, schedule: Q07DX002 (ip), vehicle: saline with Tween-80, higher = larger tumour
  T/C: 107 % of control
endpoint: median tumor weight (est.), dose: 30.0 mg/kg/injection, schedule: Q07DX002 (ip), vehicle: saline with Tween-80, higher = larger tumour
  T/C: 122 % of control
